In patent US8772341B2, “Compositions for the treatment of hoof diseases” (DeLaval Holding AB, priority 2006, dated 2014):

Legend:
[1] = system: Bovine Digital Dermatitis (BDD) associated treponeme strains; assay: Treponema study, broth microdilution germicidal susceptibility (MIC/MBC); type: cell-based; settings: for MBC (minimal bactericidal concentration): average over six Treponema cultures
From the text: In an experiment carried out at the University of Liverpool, Liverpool, U.K., Treponema species were isolated from dairy farms and six cultures were used to measure the minimum inhibitory concentration (MIC, the lowest concentration which results in maintenance or reduction of inoculum's viability) and minimal bactericidal concentration (MBC, the lowest concentration which results in biocidal activity) of several commonly used germicides.
Six Bovine Digital Dermatitis (BDD) associated treponeme strains (Table 1) were used to investigate in vitro susceptibility of BDD associated Treponema (Evans, N. J.; Brown, J.; Demirkan, I.; Carter, S. D.; Hart, C. A. “In vitro susceptibility of Bovine Digital Dermatitis associated Treponema to antimicrobial agents” to be submitted to Antimicrob. Agents Chemother. To be submitted for publication September 2007). The strains included two isolates from each of three distinct phylogroups corresponding to three proposed new taxa, Treponema medium subsp. bovis, Treponema bovis and Treponema pedis (Evans, N. J.; Brown, J.; Demirkan, I. Murray, R. D.; Vink, D.; Blowey, R. W.; Hart, C. A.; Carter, S. D. “Tremponema medium subsp. bovis subsp. nov., Treponema bovis sp. nov. and Treponema pedis sp. nov.; novel spirochaetes associated with Bovine Digital Dermatitis.” International Journal of Systematic and Evolutionary Microbiology. Submitted for publication Oct. 18, 2006). […]
To determine MIC values, absorbance at 540 nm was measured for the microplate wells using a Multiskan microtitre plate reader (Thermo Scientific, Hampshire, U.K.). Measurements were recorded before and after incubation at 36° C. under anaerobic conditions—three days for T. pedis strains and four days for T. bovis and T. medium subsp. bovis strains. […] Cell growth was determined by comparison of the absorbance measurement immediately before and after incubation. […]
Microplates were incubated for a further four days at 36° C. under anaerobic conditions. Growth was assessed using phase contrast microscopy. […]

[2] = system: hoof diseases (heel erosion, interdigital dermatitis, foot rot, white line abscess, digital dermatitis); assay: field trial of hoof bath at a commercial dairy farm; type: in vivo, cows; settings: for Digital Dermatitis, number of hooves / Foot Rot, number of hooves / Heel Erosion, number of hooves / Interdigital Dermatitis, number of hooves / Total number of hoof problems / White Line Abscess, number of hooves: 178 hooves
Protocol: An 18% solution of N,N-bis(3-aminopropyl)dodecylamine with 0.17% FD&C Red #40 and 0.28% FD&C Yellow #5 was tested in a field trial at a commercial dairy farm. The product was diluted at a rate of 1+66 V/V and used to fill a hoof bath trough that the cows walked through as they left the milking parlor. A fresh hoof bath solution was prepared every day and the cows walked through the solution once each day of the week. For a month before the trial began no hoof bath treatment was applied to the cows. At the start of the trial a complete evaluation of the front and hind hooves was performed by a certified hoof trimmer, along with a veterinarian, who recorded the diseases observed in each hoof. The evaluation of the hooves was again performed after the hoof bath had been used for two months. All hooves that were present for both evaluations, and were not were not treated with antibiotics and wrapped at the first evaluation, were included in the data. […] The trial included 178 hooves.

S. aureus (ATCC 6538) = assay: modified AOAC sanitizer test (germicidal activity, with or without manure); type: cell-based, Staphylococcus aureus
Protocol: (§1) The germicidal activity of a large number of ingredients has been tested for the ability to kill Escherichia coli and Staphylococcus aureus in mixtures that have been contaminated with 10% and 20% manure. E. coli and S. aureus were chosen as representative bacteria for screening purposes. Solutions of the mixtures with 10% manure and bacteria were prepared, and the reduction in the concentration of bacteria was determined after 30 seconds and again after 5 minutes. In addition, the formulas were evaluated for skin irritation based on in vitro test data. The testing method used was that of Wolfgang J. W. Pape, Udo Hoppe: In vitro Methods for the Assessment of Primary Local Effects of Topically Applied Preparations. Skin Pharmacol. (1991), 4: 205-212, which is incorporated herein by reference.
(§2) Experiments were performed to test the germicidal properties of the disclosed compositions using a modified version of the AOAC sanitizer test (Association of Official Analytical Chemists. 1990. Official Methods of Analysis, Pages 138-140 in Germicidal and Detergent Sanitizing Action of Disinfectants 960.09, Vol. I. 15th ed. AOAC, Arlington, Va.). According to this procedure, manure was collected from a dairy farm, dispensed into flasks and autoclaved at 121° C. and 17 psi for 30 minutes. Manure samples were then stored in a freezer until needed. When needed, manure was thawed at room temperature then dispensed into 250 mL Erlenmeyer flasks in amounts appropriate for the challenge desired (10 g for 10% manure, 20 g for 20% manure, etc.). The flasks with manure, and any empty flasks needed, were capped with aluminum foil and autoclaved at 134° C. and ˜20 psi for 4 min.
(§3) Freeze-dried pellets of E. coli (ATCC 11229) and S. aureus (ATCC 6538) were hydrated, placed in test tubes containing nutrient agar and incubated at 37° C. for 24 hours. Sterile buffer (0.0003 M phosphate adjusted to pH 6.6) was used to dilute and transfer the bacteria to additional nutrient agar tubes, which were incubated for another 24 hours. S. aureus was then diluted with buffer and transferred to nutrient agar in French bottles, and E. coli was diluted and transferred to fresh nutrient agar tubes. Both types of bacteria were incubated at 37° C. for 72 hours. E. coli was then diluted and transferred to nutrient agar in French bottles. Sterile buffer and glass beads were added to the S. aureus French bottles and the solution was vacuum filtered through a #2 filter. […] After 24 hours, the E. coli suspension was collected in the same manner.
(§4) Germicide sample solutions were prepared and dispensed into the flasks containing manure. For tests without manure, 99 mL of germicide were added to an empty, sterile, 250 mL flask. […]

red blood cells = assay: in vitro irritation test on isolated red blood cells (haemolysis, denaturation); type: cell-based, calf; settings: 18% solution
Protocol: as §1
Irritation tests were performed to determine whether or not the disclosed compositions would be mild enough for topical application. These tests involved two measurements made on fresh calf blood, where red blood cells were isolated by adding 50 mL of sodium citrate buffer (17.03 g trisodium citrate+8.45 g citric acid diluted to 1 L with bacteria-free DI water) to every 450 mL of blood, then repetitively washing with sodium citrate buffer and centrifuging to remove white blood cells and plasma.
Compositions disclosed herein were introduced into a container containing the isolated red blood cells and values for Haemolysis (H50); a Denaturation Index value (DI); and a Lysis/Denaturation Ratio (L/D) were determined using methods disclosed by Wolfgang J. W. Pape, Udo Hoppe: In vitro Methods for the Assessment of Primary Local Effects of Topically Applied Preparations. Skin Pharmacol. (1991), 4: 205-212. The haemolysis—or tendency of the red blood cells to rupture when in contact with the test product—was measured by the half-haemolysis value H50. The denaturation of protein caused by the test product was measured by the denaturation index (DI). The overall irritation value for a product was determined by the ratio of the H50/DI which is referred to as the lysis/denaturation quotient. The overall irritation score is given by the lysis/denaturation value which is calculated by the equation: L/D=H50 (measured in ppm)/DI (measured in %).
The higher the ppm value for H50 the less irritating the product. A crude scale is H50>500 ppm (non-irritant); 120-500 (slight irritant), 30-120 (moderate irritant), 10-30 (irritant) and 0-10 (strong irritant).
The L/D ratio is the primary value used to determine irritation. […]

E. coli (ATCC 11229) = assay: modified AOAC sanitizer test (germicidal activity, with or without manure); type: cell-based, Escherichia coli
Protocol: as §1, §2, §3, §4

[3] = Primary Evaluation (start of trial, before hoof bath)
[4] = Secondary Evaluation after two months of daily hoof bath, 1+66 V/V
[5] = 18% solution diluted 1+33 with potable water, 5 minutes exposure, 20% manure
[6] = 18% solution diluted 1+66 with potable water (0.27%), 30 seconds exposure, 20% manure
[7] = 18% solution diluted 1+66 with potable water (0.27%), 5 minutes exposure, no manure
[8] = 18% solution diluted 1+180 with potable water (0.1%), 5 minutes exposure, 10% manure

## C=O [formaldehyde]
[1]; six Treponema cultures
  average MEC: 0.0094 % w/w

## O=S(=O)([O-])[O-].[Cu+2] [copper sulfate]
[1]
  MBC (minimal bactericidal concentration): 0.0054 % w/w

## CCCCCCCCCCCCN(CCCN)CCCN [N,N-bis(3-aminopropyl)dodecylamine]
[2]; [3]
  Digital Dermatitis, number of hooves: 33
  Foot Rot, number of hooves: 0
  Heel Erosion, number of hooves: 43
  Interdigital Dermatitis, number of hooves: 2
  Total number of hoof problems: 78
  White Line Abscess, number of hooves: 0
[2]; [4]
  Digital Dermatitis, number of hooves: 25
  Foot Rot, number of hooves: 0
  Interdigital Dermatitis, number of hooves: 0
  Total number of hoof problems: 51
  White Line Abscess, number of hooves: 1
[2]; Secondary Evaluation after two months of daily hoof bath, 18% solution with dyes diluted 1+66 V/V
  Heel Erosion, number of hooves: 25
[2]; after two months of hoof bath treatment
  reduction in the total number of hoof problems: ~35%
[2]; after two months of treatment
  hooves with digital dermatitis at the beginning of the trial that were cured: Forty
[2]; by the end of the two month treatment
  hooves not infected at the beginning that did not develop any signs of digital dermatitis: ninety
S. aureus (ATCC 6538); [5]
  log reduction: > 7.94 log
S. aureus (ATCC 6538); [6]
  log reduction: 4.8 log
S. aureus (ATCC 6538); [7]
  log reduction: > 8 log
S. aureus (ATCC 6538); [8]
  log reduction: > 7.94 log
Red blood cells
  skin irritation (conclusion from L/D): does not cause skin irritation
Red blood cells; L/D = H50/DI
  combined L/D value (lysis/denaturation ratio): 7×10^3
Red blood cells; calf red blood cells
  DI value (denaturation index): 2.6%
  H50 value (half-haemolysis): 18000 ppm
[1]
  MBC (minimal bactericidal concentration): 0.00051 % w/w
E. coli (ATCC 11229); [5]
  log reduction: > 8.0 log
E. coli (ATCC 11229); [6]
  log reduction: > 8 log
E. coli (ATCC 11229); [7]
  log reduction: > 8 log
E. coli (ATCC 11229); [8]
  log reduction: > 7.97 log
